Assay results: ChEMBL document CHEMBL3576800, “Discovery of a Potent and Orally Bioavailable Dual Antagonist of CC Chemokine Receptors 2 and 5” (ACS Med Chem Lett, 2015)

Legend:
Liver microsome = conditions: rat, microsomes
Description: Drug metabolism in rat liver microsomes

Mus musculus = species on record: Mus musculus; conditions: in vivo, po, 10 mg/kg, 4 h
[1] = Clearance in cynomolgus monkey at 1 mg/kg, iv after 0.25 to 24 hrs by LC/MS/MS method; type: ADME, organism-based, Macaca fascicularis; conditions: in vivo
[2] = Clearance in Sprague-Dawley rat at 2.5 mg/kg, iv after 0.25 to 24 hrs by LC/MS/MS method; type: ADME, organism-based; conditions: in vivo
[3] = Oral bioavailability in Sprague-Dawley rat at 25 mg/kg after 0.25 to 24 hrs by LC/MS/MS method; type: ADME, organism-based; conditions: in vivo
[4] = Oral bioavailability in cynomolgus monkey at 1.4 mg/kg after 0.25 to 24 hrs by LC/MS/MS method; type: ADME, organism-based, Macaca fascicularis; conditions: in vivo
[5] = AUC in Sprague-Dawley rat at 25 mg/kg, po after 0.25 to 24 hrs by LC/MS/MS method; type: ADME, organism-based; design: time upper 24 hr, dose 25 mg/kg, time lower 0.25 hr, route oral; conditions: in vivo
[6] = AUC in cynomolgus monkey at 1.4 mg/kg, po after 0.25 to 24 hrs by LC/MS/MS method; type: ADME, organism-based, Macaca fascicularis; design: time 0.25-24 hr, dose 1.4 mg/kg, route oral; conditions: in vivo

| SMILES | Drug metabolism (Liver microsome) [nmol/min/mg] | AUC/dose (Mus musculus) [µM·h] | also measured |
| --- | --- | --- | --- |
| CC(C)N(C)[C@@H]1CC[C@H](NC(=O)CNC(=O)c2cccc(C(F)(F)F)c2)[C@H](CS(=O)(=O)c2ccccc2)C1 | 0.16 | 1.1 |  |
| COC[C@@H]1C[C@H](N(C)C(C)C)CC[C@@H]1NC(=O)CNC(=O)c1cccc(C(F)(F)F)c1 | 0.01 |  |  |
| CCCC[C@@H]1C[C@H](N(C)C(C)C)CC[C@@H]1NC(=O)CNC(=O)c1cccc(C(F)(F)F)c1 | 0.17 |  |  |
| CC(C)N(C)[C@@H]1CC[C@H](NC(=O)CNC(=O)c2cccc(C(F)(F)F)c2)[C@H](COc2ccccc2)C1 | 0.29 |  |  |
| CCC[C@@H]1C[C@H](N(C)C(C)C)CC[C@@H]1N1CC[C@H](Nc2ncnc3ccc(C(F)(F)F)cc23)C1=O |  | 22 | clearance [1]: 25 mL/min/kg; clearance [2]: 40 mL/min/kg; bioavailability [3]: 68%; bioavailability [4]: 46%; AUC [5]: 9.29 µM·h; AUC [6]: 0.862 µM·h |
